Active and inactive are the calls of the source. The rule behind the calls is not given here.
Key:
[1] = tested on: NCI-H226; assay: Growth inhibition of human NCI-H226 cells at 10 uM after 48 hrs; format: functional; conditions: NCI-H226, 48 h, read-out: GI
[2] = tested on: KM12; assay: Growth inhibition of human KM12 cells at 10 uM after 48 hrs; format: functional; conditions: KM12, 48 h, read-out: GI
[3] = tested on: T47D; assay: Growth inhibition of human T47D cells at 10 uM after 48 hrs; format: functional; conditions: read-out: GI
[4] = tested on: A549; assay: Growth inhibition of human A549 cells at 10 uM after 48 hrs; format: functional; conditions: A549, 48 h, read-out: GI
[5] = tested on: K562; assay: Growth inhibition of human K562 cells at 10 uM after 48 hrs; format: functional; conditions: K562, 48 h, read-out: GI
[6] = tested on: HL-60(TB); assay: Growth inhibition of human HL-60(TB) cells at 10 uM after 48 hrs; format: functional; conditions: HL-60, 48 h, read-out: GI
[7] = tested on: SR; assay: Growth inhibition of human SR cells at 10 uM after 48 hrs; format: functional; conditions: read-out: GI
[8] = tested on: Staphylococcus aureus; assay: Antimicrobial activity against Staphylococcus aureus assessed as inhibition zone at 200 ug/disk after 24 hrs by disc-diffusion method; format: functional; conditions: read-out: IZ
[9] = tested on: NCI-H522; assay: Growth inhibition of human NCI-H522 cells at 10 uM after 48 hrs; format: functional
[10] = tested on: CCRF-CEM; assay: Growth inhibition of human CCRF-CEM cells at 10 uM after 48 hrs; format: functional; conditions: read-out: GI
[11] = tested on: MDA-MB-468; assay: Growth inhibition of human MDA-MB-468 cells at 10 uM after 48 hrs; format: functional; conditions: MDA-MB-468, 48 h, read-out: GI
[12] = target: T1, Dihydrofolate reductase (Bos taurus, UniProt P00376); assay: Inhibition of bovine liver DHFR
T1 sequence (P00376 whole entry): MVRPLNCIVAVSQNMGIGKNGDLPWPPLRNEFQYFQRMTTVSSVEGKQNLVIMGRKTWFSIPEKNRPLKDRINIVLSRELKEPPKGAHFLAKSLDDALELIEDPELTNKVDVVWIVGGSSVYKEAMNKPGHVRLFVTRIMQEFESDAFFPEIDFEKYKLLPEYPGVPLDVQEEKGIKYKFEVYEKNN

[13] = Growth inhibition of human PC3 cells at 10 uM after 48 hrs; format: functional; conditions: PC-3, 48 h, read-out: GI
[14] = Growth inhibition of human UACC62 cells at 10 uM after 48 hrs; format: functional; conditions: UACC-62, 48 h, read-out: GI
[15] = Growth inhibition of human OVCAR4 cells at 10 uM after 48 hrs; format: functional; conditions: OVCAR-4, 48 h, read-out: GI
[16] = Growth inhibition of human HCT116 cells at 10 uM after 48 hrs; format: functional; conditions: HCT-116, 48 h, read-out: GI
[17] = tested on: UO-31; assay: (§1) Growth inhibition of human UO31 cells at 10 uM after 48 hrs; format: functional
[18] = tested on: SK-MEL-5; assay: Growth inhibition of human SK-MEL-5 cells at 10 uM after 48 hrs; format: functional; conditions: SK-MEL-5, 48 h, read-out: GI
[19] = tested on: Candida albicans; assay: Antimicrobial activity against Candida albicans assessed as inhibition zone at 200 ug/disk after 24 hrs by disc-diffusion method; format: functional; conditions: read-out: IZ
[20] = tested on: A498; assay: Growth inhibition of human A498 cells at 10 uM after 48 hrs; format: functional; conditions: A498, 48 h, read-out: GI
[21] = Growth inhibition of human RPMI8226 cells at 10 uM after 48 hrs; format: functional; conditions: RPMI-8226, 48 h, read-out: GI
[22] = Growth inhibition of human HCT15 cells at 10 uM after 48 hrs; format: functional; conditions: HCT-15, 48 h, read-out: GI
[23] = Growth inhibition of human RXF393 cells at 10 uM after 48 hrs; format: functional; conditions: RXF 393, 48 h, read-out: GI
[24] = tested on: Bacillus subtilis; assay: Antimicrobial activity against Bacillus subtilis assessed as inhibition zone at 200 ug/disk after 24 hrs by disc-diffusion method; format: functional; conditions: read-out: IZ
[25] = tested on: HT-29; assay: Growth inhibition of human HT-29 cells at 10 uM after 48 hrs; format: functional; conditions: HT-29, 48 h, read-out: GI
[26] = tested on: Pseudomonas aeruginosa; assay: Antimicrobial activity against Pseudomonas aeruginosa assessed as inhibition zone at 200 ug/disk after 24 hrs by disc-diffusion method; format: functional; conditions: read-out: IZ
[27] = tested on: Escherichia coli; assay: Antimicrobial activity against Escherichia coli assessed as inhibition zone at 200 ug/disk after 24 hrs by disc-diffusion method; format: functional; conditions: read-out: IZ
[28] = Growth inhibition of human MOLT4 cells at 10 uM after 48 hrs; format: functional; conditions: MOLT-4, 48 h, read-out: GI
[29] = tested on: MCF7; assay: Growth inhibition of human MCF7 cells at 10 uM after 48 hrs; format: functional; conditions: MCF7, 48 h, read-out: GI
[30] = Growth inhibition of human SF295 cells at 10 uM after 48 hrs; format: functional; conditions: SF-295, 48 h, read-out: GI
[31] = as §1; format: functional; conditions: UO-31, 48 h, read-out: GI
[32] = Growth inhibition of human HOP92 cells at 10 uM after 48 hrs; format: functional; conditions: HOP-92, 48 h, read-out: GI
[33] = tested on: CAKI-1; assay: Growth inhibition of human CAKI-1 cells at 10 uM after 48 hrs; format: functional; conditions: CAKI-1, 48 h, read-out: GI

Structure (SMILES)	inhibition of growth at 10 µM [1] [%]	inhibition of growth at 10 µM [3] [%]	inhibition of growth at 10 µM [5] [%]	inhibition of growth at 10 µM [7] [%]	zone of inhibition at 200 µg/disc [8] [mm]	IC50 [12] [nM]	inhibition of growth at 10 µM [13] [%]	inhibition of growth at 10 µM [14] [%]	inhibition of growth at 10 µM [15] [%]	zone of inhibition at 200 µg/disc [19] [mm]	inhibition of growth at 10 µM [20] [%]	inhibition of growth at 10 µM [21] [%]	inhibition of growth at 10 µM [23] [%]	zone of inhibition at 200 µg/disc [24] [mm]	zone of inhibition at 200 µg/disc [26] [mm]	zone of inhibition at 200 µg/disc [27] [mm]	inhibition of growth at 10 µM [28] [%]	inhibition of growth at 10 µM [29] [%]	inhibition of growth at 10 µM [30] [%]	inhibition of growth at 10 µM [31] [%]	also measured
COc1cc2nc(Sc3nnc(N)s3)n(-c3ccc(Oc4ccccc4)cc3)c(=O)c2cc1OC	13.4	38.4	22.5	57.3	8	600	23.2	22.1	34.6	8	19.3	43.7	10.7	8	8	8	29.6	14.8	–	–	inhibition of growth at 10 µM [2]: 20.7%; inhibition of growth at 10 µM [4]: 15.2%; inhibition of growth at 10 µM [6]: 11.2%; growth inhibition (GI) [9]: inactive; inhibition of growth at 10 µM [10]: 11.2%; inhibition of growth at 10 µM [11]: 22.6%; inhibition of growth at 10 µM [16]: 11.5%; growth inhibition (GI) [17]: inactive; inhibition of growth at 10 µM [18]: 28.2%; inhibition of growth at 10 µM [22]: 21.4%; inhibition of growth at 10 µM [25]: 17.6%
COc1ccc(-n2c(Sc3sc(N)nc3C)nc3ccc(Cl)cc3c2=O)cc1	11.8	–	14.3	13.5	8	8000	14.7	12.6	13.8	8	24.3	14.6	13.4	8	8	8	–	11.5	27.6	35.5	inhibition of growth at 10 µM ([9]; NCI-H522, 48 h, read-out: GI): 10.5%; inhibition of growth at 10 µM [32]: 24.9%; inhibition of growth at 10 µM [33]: 13.1%
COc1ccc(-n2c(Sc3nnc(N)s3)nc3ccc(Cl)cc3c2=O)cc1	13.4	12	–	19.1	8	800	–	–	–	8	36.4	–	–	8	8	8	12	13.2	11	21.1	inhibition of growth at 10 µM [32]: 42.1%
